Test results from patent US7053194B2, “Compositions and methods for p53-mediated repression of gene expression” (Fox Chase Cancer Center, priority 1999, dated 2006).

Tested on: MCF-7 cells
Test: Immunoprecipitation-western analysis of p53 and p53-mSin3a complexes
Assay type: cell-based, human
Procedure: Sub-confluent cultures of MCF 7 and A2780 cells were treated with 100 nM trichostatin A (TSA, Sigma)for 2 hours, followed by incubation with 0.5 ug/ml adriamycin (doxorubicin, Sigma) for the indicated timepoints. Va15 cells grown at 39 degrees were treated with 100 nM TSA for two hours, followed by temperature shift to 32 degrees for 12 hours. p53 induction was monitored by western analysis of 100 ug protein as described (Murphy et al., Genes & Devel. 10:2971–2980, 1996), using 0.1ug/ml DO-1 (Ab-6, Calbiochem) or 421 (Ab-1, Calbiochem). MDM2 induction was monitored using the monoclonal antibody 2A10, kindly provided by Arnold Levine (Rockefeller University). For UV treatments, cells were irradiated with 4 J/m2 of UV-C with a Spectroline X series ultraviolet lamp, and output was monitored with a traceable UV light meter (Fisher Scientific). For ALLN treatment, MCF-7 cells were treated with 50 uM ALLN (calpain I inhibitor, Sigma) made in DMSO (dimethyl sulfoxide, Sigma) or with DMSO alone for 2 hours prior to harvesting.
Sub-confluent cultures of cells were harvested and lysed in NP-40 buffer supplemented with protease inhibitors (1 mM PMSF, 10 ug/ml pepstatin A, 10 ug/ml aprotinin, and 5ug/ml leupeptin). Protein concentrations were determined by the method of Bradford (BioRad). Equal ug amounts of protein (between 2.0 and 3.0 mg) were immunoprecipitated with 1 ug of each antibody, except for Va15 immunoprecipitations, which used 1000 ug protein, as described (Murphy et al., Genes & Devel. 10:2971–2980, 1996). For p300, antibody N15 (Santa Cruz Biotechnology) and AB-1 (Calbiochem) yielded similar results. Each IP was washed twice in NP-40 buffer (Wu, et al., Genes & Devel. 7:1126–1132, 1993), followed by 2 washes in RIPA buffer (50 mM Tris pH 7.4/150 mM NaCl/1% Triton X 100/0.1% SDSI 1% Na deoxycholate). Immunoprecipitations were run on 7.5–10% SDS-PAGE gels and transferred overnight onto Immuno-Blot PVDF membrane (BioRad). […]
These complexes persisted under stringent washing conditions (RIPA buffer washes, see Materials and Methods), and were not present using control antisera (rabbit IgG, lane 1). […] We next analyzed the p53-mSin3a interaction following post-translational stabilization of p53 mediated by DNA damaging agents. […]
We next analyzed the time-course of the p53-mSin3a interaction following exposure of cells to the DNA damaging agent adriamycin (doxorubicin). Both p53-mSin3a and p53 p300 complexes were monitored by IP-western analysis in a time course following adriamycin treatment of MCF-7 cells. As a control, p53 was immunoprecipitated using polyclonal antisera generated against full-length p53 (Santa Cruz Biotechnology). p53 levels were also assessed at each time point by western analyses (data not shown). […]

COc1cccc2c1C(=O)c1c(O)c3c(c(O)c1C2=O)C[C@@](O)(C(=O)CO)C[C@@H]3O[C@H]1C[C@H](N)[C@H](O)[C@H](C)O1 [adriamycin, doxorubicin]
total p53 protein (MCF-7, adriamycin, four and eight hours of treatment): significant increase in total p53 protein
amount of p53 in mSin3a complexes, increase (MCF-7 treated with doxorubicin): approximately five-fold greater
